Measured values: patent publication US20250325560A1, “METHODS FOR IMPROVING MUSCLE MASS, STRENGTH, OR FUNCTION WITH A COMBINATION OF TESTOSTERONE AND GROWTH HORMONE” (University of Rochester, priority 2022, published 2025)

Columns and labels:
FSHD patients = assay: Safety and tolerability monitoring in clinical study; format: in vivo, human; conditions: intramuscular injection into the gluteal muscle, when properly given
Excerpt: Safety outcome measures included (1) Changes from baseline in laboratory test results, vital signs, and EKG results, (2) Occurrence of serious adverse events, and (3) Occurrence of non-serious adverse events. Exploratory efficacy outcome measures included the following: • 1. Composite Quantitative Muscle Testing (QMT) score • 2. Composite Manual Muscle Testing (MMT) score • 3. FSHD Clinical Outcome Measure (FSHD-COM), total and individual test scores • 4. FSHD-Health Index (FSHD-HI), disease-specific patient-reported outcome measure • 5. Forced Vital Capacity (FVC) • 6. Epworth Sleepiness Scale • 7. Fatigue Severity Scale • 8. Dual Energy X-Ray Absorptiometry (DEXA) Lean Body Mass (total and regional) • 9. PROMIS-57 • 10. Individualized Neuromuscular Quality of Life Questionnaire (INQoL) • 11. Beck Depression Inventory (BDI) • 12. Six minute walk distance
For safety assessments and adverse event assessments, various clinical safety Laboratory tests were carried out. For treatment-specific assessments, the subjects were monitored for the following treatment-related events: • peripheral edema • carpal tunnel syndrome • gynecomastia • insulin resistance • arthralgia • increased erythropoiesis • reduced HDL cholesterol • elevated prostate specific antigen • elevated blood pressure […]

[1] = system: adult muscular dystrophy population; conditions: heterogeneous adult muscular dystrophy group with normal baseline testosterone; after 3 months of treatment; cited from earlier work
[2] = system: patients with myotonic dystrophy; conditions: 40 patients with myotonic dystrophy; cited from earlier work

SMILES	Tolerability of intramuscular injections (FSHD patients)	Safety and body composition effects of testosterone in isolation [1]	Safety and efficacy of testosterone in isolation [2]
CCCCCCC(=O)O[C@H]1CC[C@H]2[C@@H]3CCC4=CC(=O)CC[C@]4(C)[C@H]3CC[C@]12C [testosterone enanthate, Testosterone enanthate]	well tolerated	–	–
C[C@]12CC[C@H]3[C@@H](CCC4=CC(=O)CC[C@@]43C)[C@@H]1CC[C@@H]2O [testosterone, 17-β-hydroxyandrost-4-en-3-one]	–	safe and increase lean body mass, reduce body fat, and improve basal metabolic rate	safe, tolerable, and able to improve both creatinine excretion and lean body mass while not statistically improving overall strength
